# Data as given in PMC13077603, “Fluorine‐18‐Labeled Nucleotide Analogs Targeting Ecto‐5'‐Nucleotidase (CD73) for Positron Emission Tomography Imaging of Solid Tumors” (Angewandte Chemie (International Ed. in English), 2026).
# Tested on: MDA‐MB‐231 tumor
# Assay: PET imaging in MDA-MB-231 breast cancer xenograft model
# Format: in vivo, NSG mice
# Method: Given the specificity of [^18F]1 and [^18F]2 and the promising in vivo biodistribution profile of [^18F]1, we established a small‐animal human breast tumor xenograft model in NSG mice subcutaneously implanted with MDA‐MB‐231 cells. […] For blocking studies, PSB‐12651 (15, Figure 6) or unlabeled 1 were used.
# FIGURE 6 PET imaging data in an MDA‐MB‐231 tumor mouse model. (A). PET images, CT scans, and merged images of [^18F]2 in the MDA‐MB‐231 tumor mouse model 90 min after tracer injection. White arrows mark the tumor positions. (B). Quantitative PET analysis of [^18F]2 uptake: activity concentration of [^18F]2 in muscle and tumor tissues 90 min after tracer injection (left) and respective tumor‐to‐muscle ratio (right, n = 5 tumors). (C). PET‐CT images of [^18F]1 and [^18F]FDG in the MDA‐MB‐231 tumor mouse model, 260 min ([^18F]1), or 75 min ([^18F]FDG) after injection. […] White arrows mark the positions of tumors. (D). Quantitative PET analysis of [^18F]1 uptake: activity concentration of [^18F]1 and [^18F]FDG in muscle and tumor tissues (left) and tumor‐to‐muscle ratios (right) after 260 min. [^18F]1: n = 18 tumors, [^18F]1 plus unlabeled 1 block: n = 8 tumors, [^18F]1 plus compound 15 block: n = 6 tumors, [^18F]FDG: n = 18 tumors E. Ex vivo analysis of [^18F]1 uptake as measured by gamma counter: activity concentrations of [^18F]1 in muscle and tumor tissues after 260 min without and with blocking (left) and tumor‐to‐muscle ratios (right). [^18F]1: n = 6 tumors, [^18F]1 plus unlabeled 1 block: n = 6 tumors, [^18F]1 plus compound 15 block: n = 5 tumors.^# relative to the respective muscle, *relative to [^18F]1 without blocker, relative to the unblocked tumor; *<0.05; **<0.01, ***<0.001,^#<0.05; ^## <0.01, ^###<0.001, <0.05; <0.01, <0.001, ns: non‐significant, unpaired t‐test.
# MDA-MB-231 cells were cultivated in DMEM/GlutaMAX, supplemented with 10 % fetal calf serum, 100 U/mL penicillin, and 100 µg/mL streptomycin and L-glutamine to a final concentration of 8 mmol/L. AsPC-1 cells were cultivated in RPMI, supplemented with 10 % fetal calf serum, 100 U/mL penicillin, and 100 µg/mL streptomycin and L-glutamine to a final concentration of 8 mmol/L. 5 x 10^6 MDA-MB-231 or 1x 10^6 AsPC-1 cells were injected subcutaneously into the shoulder region of 7 to 12 weeks old NSG (NOD.Cg-Prkdc^scid Il2rg^tm1Wjl/SzJ) mice (Charles River Laboratories). Two tumors were inoculated per animal, and growth was followed by digital caliper measurements (volume = ½ (length * width^2)).
# Adult C57bl/6 (biodistribution study, 19.8±1.3 g) or tumor-bearing NSG mice (22.2±2.2 g) were anesthetized by isoflurane/O2, and one lateral tail vein was cannulated using a 27 G needle. A respective radiotracer (~ 390 kBq/g body weight) was injected as a bolus via the tail vein, and subsequent PET scanning was performed. A ~1000-fold excess of unlabeled JMS0414 (14 for [^18F]MRS-4648 ([^18F]2)), unlabeled PSB-19427 (1), or PSB-12651 (15) (for [^18F]PSB-19427 ([^18F]1)) was injected into a subgroup of tumor-bearing mice 10 min before radiotracer injection in the blocking studies. PET imaging studies were carried out using a submillimeter high resolution (0.7 mm full width at half-maximum) small animal scanner (32 module quadHIDAC, Oxford Positron Systems Ltd., Oxford, UK) with a uniform spatial resolution (<1 mm) over a large cylindrical field (165 mm diameter, 280 mm axial length). […]
SMILES,"Tumor accumulation (MDA‐MB‐231 model, 90 min PET)","Muscle uptake (MDA‐MB‐231 model, PET, after 260 min)","Tumor uptake (MDA‐MB‐231 tumor, PET, after 260 min)"
"Cn1c(=O)n([C@@H]2O[C@H](COP(=O)(O)CP(=O)(O)O)[C@@H](O)[C@H]2O)cc/c1=N/OCc1ccc(-c2cn(CC[18F])nn2)cc1 [[^18F]2, [^18F]-{[(2R,3S,4R,5R)-5-(4-{[(4-{1-[2-(fluoro)ethyl]-1H-1,2,3-triazol-4-yl}benzyl)-oxy]imino}-3-methyl-2-oxo-3,4-dihydropyrimidin-1(2H)-yl)-3,4-dihydroxytetra-hydrofuran-2-yl]methoxy}methylenebisphosphonic acid]",very low tumor accumulation,–,–
CCCN(Cc1ccc(-c2cn(CCF)nn2)cc1)c1nc(Cl)nc2c1ncn2[C@@H]1O[C@H](COP(=O)(O)CP(=O)(O)O)[C@@H](O)[C@H]1O [compound 1],–,0.86% ± 0.24 % ID/mL,3.60% ± 1.27 %ID/mL
